Values after ≈ are worked out from the molar mass of the structure shown. Active and inactive are the calls of the source. The calls are words filed in the database; no cut-off is given here.
Legend:
[1] = tested on: Staphylococcus epidermidis; assay: Antibacterial activity against methicillin-resistant Staphylococcus epidermidis assessed as zone of inhibition at 200 ng/mL after 24 hrs by agar disc diffusion method; format: functional; conditions: read-out: IZ
[2] = tested on: Staphylococcus epidermidis; assay: Antibacterial activity against methicillin-resistant Staphylococcus epidermidis assessed as zone of inhibition at 400 ng/mL after 24 hrs by agar disc diffusion method; format: functional; conditions: read-out: IZ
[3] = tested on: Staphylococcus epidermidis; assay: Antibacterial activity against methicillin-resistant Staphylococcus epidermidis assessed as zone of inhibition at 800 ng/mL after 24 hrs by agar disc diffusion method; format: functional; conditions: read-out: IZ
[4] = tested on: Staphylococcus aureus; assay: Antibacterial activity against methicillin-resistant Staphylococcus aureus after overnight incubation by micro broth dilution analysis; format: functional
[5] = tested on: Staphylococcus aureus; assay: Induction of cellular content release in methicillin-resistant Staphylococcus aureus assessed as DNA content by measuring optical density at 260 nm at MIC after 240 mins by UV-visible spectrophotometric analysis; format: functional
[6] = tested on: Staphylococcus aureus; assay: Antibacterial activity against methicillin-resistant Staphylococcus aureus assessed as zone of inhibition at 50 ug/mL after 24 hrs by agar disc diffusion method; format: functional; conditions: read-out: IZ
[7] = tested on: Staphylococcus aureus; assay: Antibacterial activity against methicillin-resistant Staphylococcus aureus assessed as zone of inhibition at 800 ng/mL after 24 hrs by agar disc diffusion method; format: functional; conditions: read-out: IZ
[8] = tested on: Staphylococcus haemolyticus; assay: Antibacterial activity against methicillin-resistant Staphylococcus haemolyticus after overnight incubation by micro broth dilution analysis; format: functional
[9] = tested on: Staphylococcus haemolyticus; assay: Antibacterial activity against methicillin-resistant Staphylococcus haemolyticus assessed as zone of inhibition at 50 ug/mL after 24 hrs by agar disc diffusion method; format: functional; conditions: read-out: IZ
[10] = tested on: Staphylococcus aureus; assay: Antibacterial activity against methicillin-resistant Staphylococcus aureus assessed as zone of inhibition at 400 ng/mL after 24 hrs by agar disc diffusion method; format: functional; conditions: read-out: IZ
[11] = tested on: Staphylococcus epidermidis; assay: Antibacterial activity against methicillin-resistant Staphylococcus epidermidis assessed as zone of inhibition at 20 ug/mL after 24 hrs by agar disc diffusion method; format: functional; conditions: read-out: IZ
[12] = tested on: Staphylococcus aureus; assay: Antibiofilm activity against methicillin-resistant Staphylococcus aureus at 2 times MIC after 24 hrs by crystal violet staining-based UV-visible spectrophotometric analysis; format: functional, organism-based
[13] = tested on: Staphylococcus aureus; assay: Antibacterial activity against methicillin-resistant Staphylococcus aureus assessed as zone of inhibition at 200 ng/mL after 24 hrs by agar disc diffusion method; format: functional; conditions: read-out: IZ
[14] = tested on: Staphylococcus epidermidis; assay: Antibacterial activity against methicillin-resistant Staphylococcus epidermidis after overnight incubation by micro broth dilution analysis; format: functional
[15] = tested on: Staphylococcus aureus; assay: Antibiofilm activity against methicillin-resistant Staphylococcus aureus planktonic biofilm assessed as optical density at 492 nm at MIC after 24 hrs by crystal violet staining-based UV-visible spectrophotometric analysis; format: functional
[16] = tested on: Staphylococcus aureus; assay: Antibiofilm activity against methicillin-resistant Staphylococcus aureus at MIC after 24 hrs by crystal violet staining-based UV-visible spectrophotometric analysis; format: functional, organism-based
[17] = tested on: Staphylococcus haemolyticus; assay: Antibacterial activity against methicillin-resistant Staphylococcus haemolyticus assessed as zone of inhibition at 200 ng/mL after 24 hrs by agar disc diffusion method; format: functional; conditions: read-out: IZ
[18] = tested on: Staphylococcus haemolyticus; assay: Antibacterial activity against methicillin-resistant Staphylococcus haemolyticus assessed as zone of inhibition at 400 ng/mL after 24 hrs by agar disc diffusion method; format: functional; conditions: read-out: IZ
[19] = tested on: Staphylococcus haemolyticus; assay: Antibacterial activity against methicillin-resistant Staphylococcus haemolyticus assessed as zone of inhibition at 800 ng/mL after 24 hrs by agar disc diffusion method; format: functional; conditions: read-out: IZ

| Compound | zone of inhibition at 0.2 µg/mL [1] [mm] | zone of inhibition at 0.4 µg/mL [2] [mm] | zone of inhibition at 0.8 µg/mL [3] [mm] | MIC99 [4] [µg/mL] | OD [5] | zone of inhibition at 50 µg/mL [6] [mm] | zone of inhibition at 0.8 µg/mL [7] [mm] | MIC99 [8] [µg/mL] | zone of inhibition at 50 µg/mL [9] [mm] | zone of inhibition at 0.4 µg/mL [10] [mm] | zone of inhibition at 20 µg/mL [11] [mm] | Activity [12] | zone of inhibition at 0.2 µg/mL [13] [mm] | MIC99 [14] [µg/mL] | OD [15] | Activity [16] | zone of inhibition at 0.2 µg/mL [17] [mm] | zone of inhibition at 0.4 µg/mL [18] [mm] | zone of inhibition at 0.8 µg/mL [19] [mm] |
| --- | --- | --- | --- | --- | --- | --- | --- | --- | --- | --- | --- | --- | --- | --- | --- | --- | --- | --- | --- |
| O=S(=O)(F)/C=C/c1cccc(O)c1 | 4.2 | 5.3 | 7.4 | 0.841 (≈ 4.16 µM) | 1.52 | 12.2 | 6.3 | 58.2 (≈ 288 µM) | 4.5 | 4.1 | 7.4 | Active | 3.5 | 0.83 (≈ 4.1 µM) |  |  |  |  |  |
| COc1cccc(/C=C/S(=O)(=O)F)c1 |  |  |  | 0.842 (≈ 3.89 µM) | 1.56 | 9.1 | 9.1 | 63.2 (≈ 292 µM) | 6.3 | 5.2 | 4.3 | Active | 4.1 | 55.2 (≈ 255 µM) |  |  |  |  |  |
| Cc1cc(C)cc(/C=C/S(=O)(=O)F)c1 | 3.3 | 5.2 | 9.8 | 40.2 (≈ 188 µM) | 1.37 | 7.2 |  | 60.2 (≈ 281 µM) | 3.5 |  | 9.2 | Active |  | 0.818 (≈ 3.82 µM) |  |  |  |  |  |
| GENTAMICIN |  |  |  |  |  |  |  |  |  |  |  | Active |  |  | 0.808 |  |  |  |  |
| O=S(=O)(F)/C=C/c1ccc(C(F)(F)F)nc1 | 4.2 | 5.1 | 7.2 | 0.811 (≈ 3.18 µM) | 1.67 | 12.2 | 11.2 | 40 (≈ 157 µM) | 5.5 | 7.2 | 8.5 |  | 5.1 | 0.838 (≈ 3.28 µM) | 0.815 | Active |  |  |  |
| O=S(=O)(F)/C=C/c1cccc2ccccc12 |  |  |  | 0.82 (≈ 3.47 µM) | 1.48 | 9.2 | 9.2 | 51 (≈ 216 µM) | 4.1 | 6.2 | 5.5 | Active | 4.2 | 47 (≈ 199 µM) |  |  |  |  |  |
| O=[N+]([O-])c1cccc(/C=C/S(=O)(=O)F)c1 | 5.2 | 6.2 | 7.2 | 0.843 (≈ 3.65 µM) | 1.45 | 9.1 | 9.7 | 61.6 (≈ 266 µM) | 6.4 | 6.1 | 7.4 | Active | 5.2 | 0.831 (≈ 3.59 µM) |  |  |  |  |  |
| Cc1ccc(/C=C/S(=O)(=O)F)cc1 |  |  |  | 0.836 (≈ 4.18 µM) | 1.48 | 10.3 | 7.1 | 40.1 (≈ 201 µM) | 6.3 | 5.2 | 6.4 |  | 4.1 | 44.2 (≈ 221 µM) | 0.815 | Active |  |  |  |
| CC(C)S(=O)(=O)c1ccc(/C=C/S(=O)(=O)F)cc1 |  |  |  | 0.808 (≈ 2.76 µM) | 1.78 | 9 | 10.1 | 41.2 (≈ 141 µM) | 5.2 | 8.1 | 6.2 |  | 6.2 | 41.4 (≈ 142 µM) | 0.6 | Active |  |  |  |
| CS(=O)(=O)c1ccc(/C=C/S(=O)(=O)F)cc1 |  |  |  | 15.1 (≈ 56.9 µM) | 1.45 | 10.3 | 7.1 | 43.2 (≈ 163 µM) |  | 5.2 | 4.2 |  | 4.1 | 50 (≈ 189 µM) | 0.718 | Active |  |  |  |
| Cc1cc(/C=C/S(=O)(=O)F)ccc1Br |  |  |  | 0.81 (≈ 2.9 µM) | 1.61 | 12 | 10.4 | 57.2 (≈ 205 µM) | 5.3 | 8.2 | 6.3 | Active | 6.2 | 50 (≈ 179 µM) |  |  |  |  |  |
| O=[N+]([O-])c1ccc(/C=C/S(=O)(=O)F)cc1 |  |  |  | 0.823 (≈ 3.56 µM) | 1.35 | 8.12 | 10.1 | 0.833 (≈ 3.6 µM) | 7.3 | 7.2 | 6.2 | Active | 5.1 | 58.2 (≈ 252 µM) |  |  | 4.1 | 5.2 | 7.4 |
| O=C(O)c1cn(C2CC2)c2cc(N3CCNCC3)c(F)cc2c1=O [CIPROFLOXACIN] |  |  |  |  |  |  |  |  |  |  |  | Active |  |  | 0.915 |  |  |  |  |
